Experimental findings from patent publication US20090247477A1, “Methods of suppressing uv light-induced skin carcinogenesis” (priority 2005, published 2009) are described below.

Test [1] has as its system UVB radiation-induced skin tumors. Kind of test: UVB-induced skin carcinogenesis in high-risk mice, dietary treatment. The class given is in vivo, mouse. The conditions noted are these: vs control. Here is the method:
Seeds of broccoli (Brassica oleracea italica, cv. DeCicco) were used to grow sprouts as described in Example 1. Growth was arrested after 3 days by plunging sprouts into boiling water and allowed to boil for ˜30 min. This treatment inactivated the endogenous sprout myrosinase and extracted the glucosinolates. […] The powder was mixed with the mouse diet (powdered AIN 76A) to give the equivalent of 10 μmol (low dose) or 50 μmol (high dose) of glucoraphanin per 3 grams of diet.
Body weights and formation of tumors larger than 1 mm in diameter were determined weekly.
UVB radiation was provided by a bank of UV lamps (FS72T12-UVB-HO, National Biological Corporation, Twinsburg, Ohio) emitting UVB (280-320 nm, 65% of total energy) and UVA (320-375 nm, 35% of total energy). The radiant dose of UVB was quantified with a UVB Daavlin Flex Control Integrating Dosimeter and further calibrated with an IL-1400 radiometer (International Light, Newburyport, Mass.).
The animals were irradiated for 20 weeks on Tuesdays and Fridays with a radiant exposure of 30 mJ/cm^2/session. […]
Tumor volumes were determined by measuring the height, length, and width of each mass that was larger than 1 mm in diameter. The average of the three measurements was used as the diameter and the volume was calculated (v=4πr^3/3). All mice were euthanized on the same day and the size and multiplicity of tumors was determined. […]

A further test deals with glutathione. The note with it: topical extract containing 1 μmol sulforaphane, 24 h, vs vehicle. The source says:
Female SKH-1 hairless mice (4 weeks old) were obtained from Charles River Breeding Laboratories (Wilmington, Mass.) and were acclimatized in our animal facility for 2 weeks before the start of the experiment. The animals were kept on a 12-h light/12-h dark cycle, 35% humidity, and given free access to water and pelleted AIN 76A diet (Harlan TekLad, free of inducers). All animal experiments were in compliance with the National Institutes of Health Guidelines and were approved by the Johns Hopkins University Animal Care and Use Committee.
The animals were euthanized 24 h later and their dorsal skins were dissected using a rectangular template (2.5×5 cm) and frozen in liquid N2. […] Centrifugation at 14,000 g for 20 min at 4° C. yielded clear supernatant fractions, aliquots of which were used for determination of protein content, enzyme activity, and total glutathione levels as described below for the cell culture experiments.

The next test concerns PE murine keratinocytes. The note with it: 5 μM for 24 h, UVA 10 J/cm^2, PE cells.

Procedure for PE murine keratinocytes: Reactive oxygen intermediates generated by the UV radiation were quantified by the fluorescent probe 2′,7′-dichlorodinitrofluorescein and fluorescence intensity was measured (expressed as a ratio of exposed to non-exposed cells).
PE cells (50,000 per well) were seeded into 24-well plates and grown for 48 h. […] On the day of the experiments, after removing the medium, the cells were incubated with 100 μM 2′,7′-dichlorodinitrofluorescein diacetate in 500 μl of fresh medium (Molecular Probes, Eugene, Oreg.) for 30 min. The medium containing the fluorescent probe was then removed, the cells were washed with DPBS, and exposed to UVA radiation (10 J/cm^2) Control cells were kept in the dark. Cells were detached with trypsin, suspended in 2.0 ml of DPBS, and the intensity of fluorescence was determined in cell suspensions at 520 nm with an excitation of 485 nm in 2-ml cuvettes in a Perkin-Elmer LS50 spectrofluorimeter.

Take `C[S+]([O-])CCCC/C(=N\OS(=O)(=O)O)S[C@@H]1O[C@H](CO)[C@@H](O)[C@H](O)[C@H]1O` (stereo partly shown) [glucoraphanin]: the “inhibition in total tumor volume per mouse” value in test [1] (high dose) and in test [1] (low dose) was 70% throughout.
Turning to `C[S+]([O-])CCCCN=C=S` (stereo not shown) [sulforaphane], the “elevation of total glutathione levels in skin” value in the test with glutathione was roughly 15%. Besides, the “reduction in reactive oxygen intermediates generated by UV radiation” value in the test with PE murine keratinocytes is 50%.
